Columns and labels:
[1] = tested on: C57/B16 mice treated with intratracheal bleomeycin; experiment: Bleomycin induced murine pulmonary fibrosis model (lung sections, trichrome stain, body weight, survival); type: in vivo
Method: Murine models of bleomycin induced fibrosis have been developed in order to study fibrotic disease progression.
There is an absence of airway epithelium in lower left compared to upper left (see arrow heads) and extensive collagen deposition (lower left). On the sixth day, either saline (upper right) or ICG-001 (5 mgs/Kg/day) was administered for 10 days after which the mice were sacrificed and sectioned. Of interest is the upper right (saline treatment) showing lack of normal airway epithelialization, extensive collagen deposition and intra-airway hypercellularity (fibroblasts and inflammatory influx).

[2] = tested on: collagen 1A2; experiment: RT-PCR for collagen 1A2 in bleomycin treated mice; type: in vivo; conditions: ICG-001 5 mgs/Kg/day s.c.
[3] = target: β-catenin/CBP interaction (Homo sapiens, UniProt Q92793); conditions: cited from earlier work
[4] = tested on: S100A4; experiment: RT-PCR for S100A4 in bleomycin treated mice; type: in vivo; conditions: ICG-001 5 mgs/Kg/day s.c.
[5] = tested on: E-Cadherin; experiment: E-Cadherin expression in IPF patient fibroblasts (Western blot on whole cell lysates); type: cell-based, human; conditions: RPMI 1640+10% FBS, 2 days
Method: (§1) Western blots for S100A4 (also know as FSP-1 or fibroblast specific protein-1) and E-Cadherin were performed on whole cell lysates.

[6] = tested on: S100A4; experiment: S100A4 expression in IPF patient fibroblasts (Western blot on whole cell lysates); type: cell-based, human
Method: as §1

[7] = bleomycin 5 days, then ICG-001 5 mgs/Kg/day for 10 days from the sixth day
[8] = bleomycin 5 days, then ICG-001 5 mgs/Kg/day for 10 days, untreated controls did not

β-catenin/CBP interaction, sequence (Q92793 whole entry): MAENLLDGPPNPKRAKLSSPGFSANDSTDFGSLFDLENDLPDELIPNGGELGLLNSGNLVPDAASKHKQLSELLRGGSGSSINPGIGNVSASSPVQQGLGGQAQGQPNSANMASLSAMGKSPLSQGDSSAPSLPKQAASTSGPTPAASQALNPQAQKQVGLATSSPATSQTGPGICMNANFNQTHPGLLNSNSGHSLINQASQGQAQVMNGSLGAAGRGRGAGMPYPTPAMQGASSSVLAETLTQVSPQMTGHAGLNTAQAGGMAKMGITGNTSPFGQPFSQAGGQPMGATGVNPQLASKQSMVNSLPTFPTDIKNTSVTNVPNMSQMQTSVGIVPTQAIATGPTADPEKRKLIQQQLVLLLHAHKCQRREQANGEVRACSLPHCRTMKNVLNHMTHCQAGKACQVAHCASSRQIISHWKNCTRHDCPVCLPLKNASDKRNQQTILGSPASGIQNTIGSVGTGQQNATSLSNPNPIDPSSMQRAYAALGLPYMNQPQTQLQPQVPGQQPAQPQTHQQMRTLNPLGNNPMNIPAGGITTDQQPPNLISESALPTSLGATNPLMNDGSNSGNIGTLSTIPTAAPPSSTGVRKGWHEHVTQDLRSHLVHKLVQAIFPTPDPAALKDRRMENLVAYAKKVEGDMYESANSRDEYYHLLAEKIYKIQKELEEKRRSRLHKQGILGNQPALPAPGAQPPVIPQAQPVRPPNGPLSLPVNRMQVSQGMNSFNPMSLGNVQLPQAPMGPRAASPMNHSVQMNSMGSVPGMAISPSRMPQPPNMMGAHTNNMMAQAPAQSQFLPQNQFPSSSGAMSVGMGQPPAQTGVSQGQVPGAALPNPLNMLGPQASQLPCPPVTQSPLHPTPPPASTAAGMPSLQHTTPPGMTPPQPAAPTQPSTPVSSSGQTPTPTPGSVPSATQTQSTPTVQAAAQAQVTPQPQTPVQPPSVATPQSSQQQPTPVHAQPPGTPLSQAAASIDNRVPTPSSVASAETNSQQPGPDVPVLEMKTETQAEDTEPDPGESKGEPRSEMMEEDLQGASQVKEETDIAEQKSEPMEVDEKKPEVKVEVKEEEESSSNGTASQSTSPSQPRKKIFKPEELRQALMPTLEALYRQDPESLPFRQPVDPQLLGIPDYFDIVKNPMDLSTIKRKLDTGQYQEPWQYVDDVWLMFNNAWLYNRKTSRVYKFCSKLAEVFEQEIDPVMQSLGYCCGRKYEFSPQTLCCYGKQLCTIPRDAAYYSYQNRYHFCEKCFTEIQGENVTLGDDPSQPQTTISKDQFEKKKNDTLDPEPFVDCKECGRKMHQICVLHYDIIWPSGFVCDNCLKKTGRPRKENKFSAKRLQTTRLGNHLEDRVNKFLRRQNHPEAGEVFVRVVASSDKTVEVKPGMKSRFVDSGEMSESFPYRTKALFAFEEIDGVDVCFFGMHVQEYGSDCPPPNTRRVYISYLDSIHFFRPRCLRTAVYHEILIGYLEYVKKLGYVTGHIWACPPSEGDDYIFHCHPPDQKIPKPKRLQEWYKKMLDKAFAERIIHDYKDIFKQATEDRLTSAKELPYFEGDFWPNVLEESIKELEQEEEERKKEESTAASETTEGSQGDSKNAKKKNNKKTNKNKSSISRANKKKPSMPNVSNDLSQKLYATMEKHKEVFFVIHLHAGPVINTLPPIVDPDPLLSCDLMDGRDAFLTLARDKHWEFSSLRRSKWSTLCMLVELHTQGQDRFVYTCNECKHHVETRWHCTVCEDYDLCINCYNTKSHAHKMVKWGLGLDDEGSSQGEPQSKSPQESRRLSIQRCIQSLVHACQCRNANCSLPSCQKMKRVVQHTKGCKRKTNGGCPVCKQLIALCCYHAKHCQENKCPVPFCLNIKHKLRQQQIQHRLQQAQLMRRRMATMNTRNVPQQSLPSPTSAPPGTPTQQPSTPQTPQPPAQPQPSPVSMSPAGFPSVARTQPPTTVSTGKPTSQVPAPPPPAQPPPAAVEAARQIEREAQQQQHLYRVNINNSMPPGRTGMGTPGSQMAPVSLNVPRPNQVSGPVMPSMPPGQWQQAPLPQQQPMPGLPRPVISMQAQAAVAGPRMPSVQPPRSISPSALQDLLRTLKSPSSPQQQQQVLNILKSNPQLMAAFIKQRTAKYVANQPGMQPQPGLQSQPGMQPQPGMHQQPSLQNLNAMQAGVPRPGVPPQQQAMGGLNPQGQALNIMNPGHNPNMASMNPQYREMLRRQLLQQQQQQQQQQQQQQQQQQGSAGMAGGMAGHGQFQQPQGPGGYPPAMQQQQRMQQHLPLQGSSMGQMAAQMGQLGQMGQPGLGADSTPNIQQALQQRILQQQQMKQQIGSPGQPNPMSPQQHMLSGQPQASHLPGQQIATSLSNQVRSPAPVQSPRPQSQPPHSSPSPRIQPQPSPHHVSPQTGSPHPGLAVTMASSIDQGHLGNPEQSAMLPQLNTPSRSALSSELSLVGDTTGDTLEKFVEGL

## O=C1[C@H](Cc2ccc(O)cc2)N2C(=O)CCN(C(=O)NCc3ccccc3)[C@H]2CN1Cc1cccc2ccccc12 [ICG-001]
[1]; [7]
  airway appearance in lung sections: essentially normal
  collagen levels (trichrome stain): normal collagen levels
[1]; [8]
  body weight: regained normal body weight
  survival: survived
[1]; murine bleomycin model of pulmonary fibrosis, 5 mg/Kg/day
  disease progression, as judged by reduced mortality, histopathology and endogenous gene expression: not only halts but reverses disease progression
[2]
  collagen 1A2 message (RT-PCR): reduced essentially to negative control
[3]
  effect on β-catenin/CBP interaction: selectively blocks
[4]
  S100A4 message (RT-PCR): reduced essentially to negative control
[5]
  E-cadherin expression (Western blot): increased
[6]
  S100A4 expression at the mRNA level: this is also true at the mRNA level
[6]; RPMI 1640+10% FBS, 2 days
  S100A4 expression (Western blot): decreased

From patent publication US7915251B2, “Alpha-helix mimetics and methods relating to the treatment of fibrosis” (Institute for Chemical Genomics, priority 2005, dated 2011)
